The values that follow come from patent US8993574B2, “Pyrrole antifungal agents” (F2G Ltd, priority 2008, dated 2015).

Values after ≈ are worked out from the molar mass of the structure shown.

Holding throughout (type): cell-based
For assay [1], the system named is Aspergillus terreus AT49. Description: MIC, YAG medium. To be noted: Aspergillus terreus, 24 h at 35° C, MIC banded into grades, read-out: MIC grade, A. terreus 49. The method, boiled down: (§1)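 Broth microdilution in YAG medium tests compound over 50-0.05 mg/L against spores at 1−2×10^4 cfu/mL. After 24 h incubation at 35° C, optical density at 485 nm gives growth, and the MIC is the lowest concentration reducing it by more than 70% relative to untreated control.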

Assay [2] concerns Aspergillus flavus. Kind of assay: MIC, YAG medium. To be noted: Aspergillus flavus, 24 h, 24 h at 35° C, MIC banded into grades, read-out: MIC grade, A. flavus. An outline of the steps: as §1
Assay [3] has as its system Aspergillus fumigatus AF293. Description: MIC, YAG medium. To be noted: Aspergillus fumigatus, 24 h at 35° C, MIC banded into grades, read-out: MIC grade, A. fumigatus. The method, boiled down:
as §1

Assay [4] has as its system Aspergillus terreus AT4. Kind of assay: MIC, YAG medium. To be noted: Aspergillus terreus, 24 h at 35° C, MIC banded into grades, read-out: MIC grade, A. terreus. An outline of the steps: as §1
Assay [5] deals with Aspergillus niger. Description: MIC, YAG medium. The following applies: Aspergillus niger, 24 h at 35° C, MIC banded into grades, read-out: MIC grade, A. niger. An outline of the steps: as §1
In assay [6] the test system is Aspergillus fumigatus AF210. Description: MIC, YAG medium. The following applies: Aspergillus fumigatus, 24 h at 35° C, MIC banded into grades, read-out: MIC grade, A. fumigatus 210. An outline of the steps: as §1
Assay [7] concerns Aspergillus terreus AT49. Kind of assay: MIC, RPMI medium. The following applies: Aspergillus terreus, AT49, MIC banded into grades, read-out: MIC grade, A. terreus 49. The method, boiled down: (§2)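 Broth microdilution in RPMI with 2% glucose, 0.135 M MOPS pH 7.0; compounds as doubling dilutions, 50-0.05 mg/L, inoculum 1−2×10^4 cfu/mL. Incubated 24-48 h at 35° C; growth by OD 485 nm. MIC is lowest concentration giving >80% growth inhibition versus drug-free control.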

In assay [8] the test system is Aspergillus flavus. Description: MIC, RPMI medium. To be noted: Aspergillus flavus, MIC banded into grades, read-out: MIC grade, A. flavus. The method, boiled down: as §2
Assay [9] deals with Aspergillus fumigatus AF293. Description: MIC, RPMI medium. The following applies: Aspergillus fumigatus, AF293, MIC banded into grades, read-out: MIC grade, A. fumigatus. The method, boiled down:
as §2

Assay [10] concerns Aspergillus terreus AT4. Description: MIC, RPMI medium. The following applies: Aspergillus terreus, AT4, MIC banded into grades, read-out: MIC grade, A. terreus. An outline of the steps: as §2
Assay [11] deals with Aspergillus niger. Kind of assay: MIC, RPMI medium. The following applies: Aspergillus niger, MIC banded into grades, read-out: MIC grade, A. niger. An outline of the steps:
as §2

Assay [12] relates to Aspergillus fumigatus AF210. Kind of assay: MIC, RPMI medium. To be noted: Aspergillus fumigatus, AF210, MIC banded into grades, read-out: MIC grade, A. fumigatus 210. The method, boiled down:
as §2

For orientation: MIC means the lowest concentration found to suppress growth. Take `Cc1cc(C)nc(N2CCN(c3ccc(NC(=O)C(=O)c4c(-c5ccccc5)cc5n4CCC5)cc3)CC2)c1` [Example 6, N-{4-[4-(4,6-Dimethyl-pyridin-2-yl)-piperazin-1-yl]-phenyl}-2-oxo-2-(2-phenyl-6,7-dihydro-5H-pyrrolizin-3-yl)-acetamide]: the MIC (with Aspergillus terreus AT49 [1]; in the assay on Aspergillus flavus [2]; in assay [3]; in the assay on Aspergillus terreus AT4 [4]; with Aspergillus niger [5]; in [6]) was less than 1 µg/mL in each case. Besides, the MIC (with Aspergillus terreus AT49 [7]; with Aspergillus flavus [8]; in assay [9]; in the assay on Aspergillus terreus AT4 [10]; in the assay with Aspergillus niger [11]; in assay [12]) was less than 1 µg/mL throughout.
With `Cc1cc(-c2ccccc2)c(C(=O)C(=O)Nc2ccc(N3CCN(C(C)Cc4ccco4)CC3)cc2)n1C` (stereo not drawn) [Example 152, 2-(1,5-Dimethyl-3-phenyl-1H-pyrrol-2-yl)-N-{4-[4-(2-furan-2-yl-1-methyl-ethyl)-piperazin-1-yl]-phenyl}-2-oxo-acetamide], the MIC (in the assay on Aspergillus terreus AT49 [1]; in the assay on Aspergillus flavus [2]; in [3]; in the assay on Aspergillus terreus AT4 [4]; with Aspergillus niger [5]; in assay [6]) was less than 1 µg/mL throughout. Also, the MIC (in the assay on Aspergillus terreus AT49 [7]; in the assay on Aspergillus flavus [8]; in [9]; with Aspergillus terreus AT4 [10]; in the assay on Aspergillus niger [11]; in assay [12]) was less than 1 µg/mL throughout.
On to `COCCOCn1c(C)cc(-c2ccccc2)c1C(=O)C(=O)Nc1ccc(N2CCN(c3cc(C)cc(C)n3)CC2)cc1` [Example 138, N-{4-[4-(4,6-Dimethyl-pyridin-2-yl)-piperazin-1-yl]-phenyl}-2-[1-(2-methoxy-ethoxymethyl)-5-methyl-3-phenyl-1H-pyrrol-2-yl]-2-oxo-acetamide], for which the MIC in the assay on Aspergillus terreus AT49 [1] is less than 1 µg/mL; in the assay with Aspergillus flavus [2], 1 to 10 µg/mL (≈ 1.72 to 17.2 µM); in assay [3] it was less than 1 µg/mL; with Aspergillus terreus AT4 [4] it was less than 1 µg/mL; in the assay on Aspergillus niger [5] it was less than 1 µg/mL; in [6] it was less than 1 µg/mL. Also, the MIC with Aspergillus terreus AT49 [7] was 1 to 10 µg/mL (≈ 1.72 to 17.2 µM); in the assay on Aspergillus flavus [8], 1 to 10 µg/mL (≈ 1.72 to 17.2 µM); in [9], less than 1 µg/mL; in the assay on Aspergillus terreus AT4 [10], 1 to 10 µg/mL (≈ 1.72 to 17.2 µM); in the assay with Aspergillus niger [11], 1 to 10 µg/mL (≈ 1.72 to 17.2 µM); in assay [12], less than 1 µg/mL.
Consider `Cc1cc(-c2ccccc2)c(C(=O)C(=O)Nc2ccc(N3CCN(c4ccccn4)CC3)cc2)n1C` [Example 38, 2-(1,5-Dimethyl-3-phenyl-1H-pyrrol-2-yl)-2-oxo-N-[4-(4-pyridin-2-yl-piperazin-1-yl)-phenyl]-acetamide], for which the MIC (with Aspergillus terreus AT49 [1]; with Aspergillus flavus [2]; in assay [3]; in the assay with Aspergillus terreus AT4 [4]; in the assay with Aspergillus niger [5]; in assay [6]) was less than 1 µg/mL in each case. For the same compound, the MIC (with Aspergillus terreus AT49 [7]; in the assay on Aspergillus flavus [8]; in [9]; in the assay on Aspergillus terreus AT4 [10]; in the assay on Aspergillus niger [11]; in assay [12]) was less than 1 µg/mL each time.
On to `Cc1cc(C)nc(N2CCN(c3ccc(NC(=O)C(=O)c4c(-c5ccccc5)cc(C)n4Cc4cccnc4)cc3)CC2)c1` [Example 93, N-{4-[4-(4,6-Dimethyl-pyridin-2-yl)-piperazin-1-yl]-phenyl}-2-(5-methyl-3-phenyl-1-pyridin-3-ylmethyl-1H-pyrrol-2-yl)-2-oxo-acetamide], for which the minimal inhibitory concentration (MIC) in the assay with Aspergillus terreus AT49 [1] was 1 to 10 µg/mL (≈ 1.71 to 17.1 µM); with Aspergillus flavus [2], 1 to 10 µg/mL (≈ 1.71 to 17.1 µM); in assay [3] it was less than 1 µg/mL; in the assay with Aspergillus terreus AT4 [4], 1 to 10 µg/mL (≈ 1.71 to 17.1 µM); with Aspergillus niger [5], less than 1 µg/mL; in assay [6], less than 1 µg/mL. In addition, the MIC is greater than 10 µg/mL in the assay with Aspergillus terreus AT49 [7]; greater than 10 µg/mL in the assay with Aspergillus flavus [8]; 1 to 10 µg/mL (≈ 1.71 to 17.1 µM) in assay [9]; greater than 10 µg/mL in the assay on Aspergillus terreus AT4 [10]; 1 to 10 µg/mL (≈ 1.71 to 17.1 µM) with Aspergillus niger [11]; 1 to 10 µg/mL (≈ 1.71 to 17.1 µM) in [12].
